In paper PMC9499324, “Glycyrrhizic Acid Derivatives Bearing Amino Acid Residues in the Carbohydrate Part as Dengue Virus E Protein Inhibitors: Synthesis and Antiviral Activity” (International Journal of Molecular Sciences, 2022):
Read-outs that look alike come from different tables or passages of the source.

Key:
[1] = MTT cytotoxicity assay in Vero E6 cells; type: cell-based; conditions: African green monkey
Procedure: (§1) Vero E6 cells and A549 cells (5 × 10^3 cells/well) were treated with the serial dilution of GL conjugates at 0, 0.1, 10, 20, and 50 μM for examining the in vitro cytotoxicity of tested compounds. After 96-h incubation at 37 °C, the cells were incubated with MTT (3-(4,5-Dimethylthiazol-2-yl)-2,5-Diphenyltetrazolium Bromide) solution for another 4 h incubation, mixed with DMSO for 15 min after the removal of media, and then measured the absorbance at 570 nm. The viability (%) of treated cells was quantified according to the reduced ability of MTT. Finally, the concentration for reducing 50% cell viability (the 50% cytotoxic concentration, CC50) was determined by regression analysis of the concentration–response survival curve.

[2] = MTT cytotoxicity assay in A549 cells; type: cell-based; conditions: human
Procedure: as §1

DENV2 = assay: Time-of-addition/compound removal assay with DENV2 in Vero E6 cells; type: cell-based, Dengue virus type 2; conditions: for IC50: Dengue virus, Vero C1008, attachment mode, 4 °C, DENV2, Vero E6 cells; for Stage of DENV2 replication affected (attachment, entry, post-entry modes): time-of-addition/removal, Vero E6 cells
Procedure: Figure 5 Time-of-addition and removal assay for analyzing antiviral action of compounds 3 (A), 6 (B), 11 (C), and 21 (D) in Vero E6 cells. In the attachment mode, cells were pre-cooled and incubated with fresh-prepared mixtures of active compounds with DENV2 at 4 °C for 1 h. After the removal of the mixtures, the cells were kept at 37 °C for 96 h (a cycle of viral replication) and then were performed by immunofluorescent assay plus DAPI staining. In entry and post-entry modes, cells were infected with DENV2 and treated with the compounds simultaneously (the entry stage) or 1-h post-infection (post-entry stage). After a 1 h incubation period, the virus/compound mixture was removed; the cell monolayer was washed with PBS and cultured for 96 h and then subjected to immunofluorescence staining and DAPI. Finally, the inhibition percentage of DENV2 infectivity was calculated as follows: 1-(percentage of NS4B positivity in treated cells/percentage of NS4B positivity in mock-treated cells). *** p < 0.001 compared with the other two antiviral action modes.
The time-of-addition assays consisted of three modes including attachment treatment/removal, entry-treatment/removal, and post-entry treatment/removal modes. In the attachment-treatment/removal mode, Vero E6 cells monolayer in 6-well plate was placed at 4 °C for 2 h and incubated with the fresh-prepared mixture of DENV-2 (MOI = 0.005) with the active compound at indicated concentrations for 2 h at 4 °C, and then washed with phosphate-buffered saline (PBS). In the entry-treatment/removal mode, Vero E6 cells were simultaneously treated with the active compound and infected DENV-2 (MOI = 0.005) in 6-well plates, incubated for 1 h at 37 °C, and then washed with PBS. In the post-entry treatment/removal mode, the cells were infected with DENV-2 for 1 h at 37 °C, treated with the active compounds at indicated concentrations for 1 h at 37 °C, respectively, and then washed by PBS. After active compound removal (washout), the cells were incubated at 37 °C for 96 h, and then were analyzed by immunofluorescent and DAPI staining assay for determining the residual DENV-2 infectivity, as described above. The inhibitory activity of the transient treatment by active compounds on attachment, entry, and post-entry stages of DENV replication in vitro was determined based on the residual infectivity.

DENV1 and DENV2 = assay: DENV infectivity inhibition, summary over DENV1 and DENV2 in Vero E6 and A549 cells; type: cell-based, Dengue virus; conditions: read-out: IC50 in DENV infectivity (range over assays)
Source text: […] In CPE and infectivity reduction assays, […], and then photographed by microscope for examining the levels of DENV2-induced CPE in infected cells treated with or without GL conjugate. Meanwhile, the cells were further performed using immunofluorescence assay (IFA) with anti-DENV NS4B antibodies (GeneTex, Inc., Hsinchu, Taiwan) and anti-rabbit IgG antibodies conjugated with AF555 (ThermoFisher, Waltham, MA, USA) plus DAPI (4′,6-diamidino-2-phenylindole) nuclear staining. Finally, the DENV-2 infectivity was measured according to the ratio of DENV NS4B-positive cells to DAPI-stained cells in the well of mock-treated or treated cells, as described in [45, 59, 60].

[3] = Dengue virus, range over DENV1 and DENV2, Vero E6 and A549 cells

Compound	CC50 at 96 h [1] [µM]	CC50 at 96 h [2] [µM]	IC50 (DENV2) [µM]	Stage of DENV2 replication affected (attachment, entry, post-entry modes) (DENV2)	IC50 (DENV1 and DENV2; [3]) [µM]	IC50 (DENV1 and DENV2) [µM]
COC(=O)[C@H](NC(=O)[C@H]1O[C@@H](O[C@H]2[C@H](OC3CC[C@@]4(C)C(CC[C@]5(C)C4C(=O)C=C4C6C[C@@](C)(C(=O)O)CC[C@]6(C)CC[C@]45C)C3(C)C)O[C@H](C(=O)N[C@@H](C(=O)OC)C(C)C)[C@@H](O)[C@@H]2O)[C@H](O)[C@@H](O)[C@@H]1O)C(C)C (stereo partly drawn) [Compound 3, 3-O-{2-O-[N-(β-D-Glucopyranosyluronoyl)-D-valinemethyl ester]-N-(β-D-glucopyranosyluronoyl)-D-valinemethyl ester}-(3β, 20β)-11-oxo-30-noroleane-12-ene-30-oic Acid]	> 100	> 100	1.86	mostly affected the virus binding stage to the cell surface in the attachment mode	0.1 to 5.98	0.12 to 2.81
CCOC(=O)[C@H](Cc1ccccc1)NC(=O)[C@H]1O[C@@H](O[C@H]2[C@H](OC3CC[C@@]4(C)C(CC[C@]5(C)C4C(=O)C=C4C6C[C@@](C)(C(=O)O)CC[C@]6(C)CC[C@]45C)C3(C)C)O[C@H](C(=O)N[C@@H](Cc3ccccc3)C(=O)OCC)[C@@H](O)[C@@H]2O)[C@H](O)[C@@H](O)[C@@H]1O (stereo partly drawn) [Compound 11, 3-O-{2-O-[N-(β-D-Glucopyranosyluronoyl)-L-phenylalanineethyl ester]-N-(β-D-Glucopyranosyluronoyl)-L-phenylalanineethyl ester}-(3β, 20β)-11-oxo-30-noroleane-12-ene-30-oic Acid]	> 100	> 100	0.18	mostly affected the virus binding stage to the cell surface in the attachment mode	0.1 to 5.98	0.18 to 1.56
